{"source": "patent US20240059703A1", "about": "(AMGEN INC., priority 2021, published 2024)"}
{"target": "KRAS G12C (Homo sapiens (Human), UniProt P01116, C118A/G12C)", "sequence (P01116 other isoform, or with tags, fused parts or gaps G12C/C118A)": "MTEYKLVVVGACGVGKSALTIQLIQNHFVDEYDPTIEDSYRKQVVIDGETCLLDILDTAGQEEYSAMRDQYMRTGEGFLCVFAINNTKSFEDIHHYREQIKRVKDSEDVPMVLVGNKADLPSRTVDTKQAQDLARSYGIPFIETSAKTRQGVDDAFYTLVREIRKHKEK", "experiment": "2 h coupled exchange assay", "assay_type": "biochemical", "conditions": "Avg 2 h Coupled exchange IC50, 2 h compound pre-incubation", "protocol": "(§1) The term “2 h coupled exchange assay” or “20 h coupled exchange assay” as used herein refers to the assay described in the Section entitled “BIOLOGICAL EVALUATION.”", "units": {"IC50": "nM"}}
{"smiles": "C=CC(=O)N1CC2(CCN(c3nc4cc(-c5ccnn5C)ccc4c(-c4cc(O)ccc4F)c3C)C2)C1", "note": "[Example 16-11, 1-(6-(4-(2-fluoro-5-hydroxyphenyl)-3-methyl-7-(1-methyl-1H-pyrazol-5-yl)-2-quinolinyl)-2,6-diazaspiro[3,4]octan-2-yl)-2-propen-1-one]", "IC50": 347}
{"smiles": "C=CC(=O)N1CC2(CCN(c3nc4c(c(-c5c(C)ccc6cnn(C)c56)c3C)COC(C)(C)C4)C2)C1", "note": "[Example 14-37, 1-(6-(4-(1,6-dimethyl-1H-indazol-7-yl)-3,7,7-trimethyl-7,8-dihydro-5H-pyrano[4,3-b]pyridin-2-yl)-2,6-diazaspiro[3.4]octan-2-yl)-2-propen-1-one]", "IC50": 478}
{"smiles": "C=CC(=O)N1CC2(CCN(c3nc4cc(-n5ccnc5C)ccc4c(-c4ccccc4Cl)c3C)C2)C1", "note": "[Example 15-4, 1-(6-(4-(2-chlorophenyl)-3-methyl-7-(2-methyl-1H-imidazol-1-yl)-2-quinolinyl)-2,6-diazaspiro[3.4]octan-2-yl)-2-propen-1-one]", "IC50": 280}
{"smiles": "C=CC(=O)N1CC2(CCN(c3nc4c(c(-c5c(C)ccc6cn[nH]c56)c3F)COC(C)(C)C4)C2)C1", "note": "[Example 14-54, 1-(6-(3-fluoro-7,7-dimethyl-4-(6-methyl-1H-indazol-7-yl)-7,8-dihydro-5H-pyrano[4,3-b]pyridin-2-yl)-2,6-diazaspiro[3.4]octan-2-yl)-2-propen-1-one]", "IC50": 349}
{"smiles": "C=CC(=O)N1CC2(CCN(c3nc4c(c(-c5cc(O)cc6ccccc56)c3C)COC(C)(C)C4)C2)C1", "note": "(single isomer, unassigned) [Example 14-35, (P)-1-(6-(4-(3-hydroxy-1-naphthalenyl)-3,7,7-trimethyl-7,8-dihydro-5H-pyrano[4,3-b]pyridin-2-yl)-2,6-diazaspiro[3.4]octan-2-yl)-2-propen-1-one]", "IC50": 5620}
{"smiles": "C=CC(=O)N1CC2(CCN(c3nc4c(c(-c5cc(O)ccc5C)c3F)COC(C)(C)C4)C2)C1", "note": "(single isomer, unassigned) [Example 14-62, (P)-1-(6-(3-fluoro-4-(5-hydroxy-2-methylphenyl)-7,7-dimethyl-7,8-dihydro-5H-pyrano[4,3-b]pyridin-2-yl)-2,6-diazaspiro[3.4]octan-2-yl)-2-propen-1-one]", "IC50": 696}
{"smiles": "C=CC(=O)N1CC2(CCN(c3nc4c(c(-c5cccc6c5cnn6C)c3C#N)C[C@H]3C[C@@H]4C3(C)C)C2)C1", "note": "[Example 14-24, (1R,9R)-10,10-dimethyl-6-(1-methyl-1H-indazol-4-yl)-4-(2-(2-propenoyl)-2,6-diazaspiro[3.4]octan-6-yl)-3-azatricyclo[7.1.1.0^2,7]undeca-2,4,6-triene-5-carbonitrile]", "IC50": 506}
{"smiles": "C=CC(=O)N1CC2(CCN(c3nc4c(c(-c5cc(O)cc6ccccc56)c3F)COC(C)(C)C4)C2)C1", "note": "(single isomer, unassigned) [Example 14-69, (M)-1-(6-(3-fluoro-4-(3-hydroxy-1-naphthalenyl)-7,7-dimethyl-7,8-dihydro-5H-pyrano[4,3-b]pyridin-2-yl)-2,6-diazaspiro[3.4]octan-2-yl)-2-propen-1-one]", "IC50": 17000}
{"smiles": "C=CC(=O)N1CC2(CCN(c3nc4cc(-c5scnc5C)ccc4c(-c4ccccc4Cl)c3C)C2)C1", "note": "[Example 15-2, 1-(6-(4-(2-chlorophenyl)-3-methyl-7-(4-methyl-1,3-thiazol-5-yl)-2-quinolinyl)-2,6-diazaspiro[3.4]octan-2-yl)-2-propen-1-one]", "IC50": 478}
{"smiles": "C=CC(=O)N1CC2(CCN(c3nc4cc(-c5ccnn5C(F)F)ccc4c(-c4ccccc4Cl)c3C#N)C2)C1", "note": "[Example 17-4, 4-(2-chlorophenyl)-7-(1-(difluoromethyl)-1H-pyrazol-5-yl)-2-(2-(2-propenoyl)-2,6-diazaspiro[3.4]octan-6-yl)-3-quinolinecarbonitrile]", "IC50": 521}
{"target": "KRAS G12C (Homo sapiens (Human), UniProt P01116, C118A/G12C)", "experiment": "2 h coupled exchange assay", "assay_type": "biochemical", "conditions": "Avg 2 h Coupled exchange IC50, 2 h compound pre-incubation, SOS-mediated nucleotide exchange", "protocol": "as §1", "units": {"IC50": "nM"}}
{"smiles": "C=CC(=O)N1CC2(CCN(c3nc4c(c(-c5cc(O)ccc5C)c3C#N)COC(C)(C)C4)C2)C1", "note": "(single isomer, unassigned) [Example 13-127, 4-(5-hydroxy-2-methylphenyl)-7,7-dimethyl-2-(2-(2-propenoyl)-2,6-diazaspiro[3.4]octan-6-yl)-7,8-dihydro-5H-pyrano[4,3-b]pyridine-3-carbonitrile]", "IC50": 153000}
{"smiles": "C=CC(=O)N1CC2(CCN(c3nc4c(c(-c5c(Cl)ccc6cc[nH]c56)c3C#N)COC(C)(C)C4)C2)C1", "note": "[Example 12-13, 4-(6-chloro-1H-indol-7-yl)-7,7-dimethyl-2-(2-(2-propenoyl)-2,6-diazaspiro[3.4]octan-6-yl)-7,8-dihydro-5H-pyrano[4,3-b]pyridine-3-carbonitrile]", "IC50": 252}
{"smiles": "C=CC(=O)N1CC2(CCN(c3nc4c(c(-c5c(C)c(Cl)cc6cnn(C)c56)c3Cl)COC(C)(C)C4)C2)C1", "note": "(single isomer, unassigned) [Example 2-90, (M)-1-(6-(3-chloro-4-(5-chloro-1,6-dimethyl-1H-indazol-7-yl)-7,7-dimethyl-7,8-dihydro-5H-pyrano[4,3-b]pyridin-2-yl)-2,6-diazaspiro[3.4]octan-2-yl)-2-propen-1-one]", "IC50": 5}
{"smiles": "C=CC(=O)N1CC2(CCN(c3nc4c(c(-c5cccc6cnn(C)c56)c3C#N)C[C@H]3C[C@@H]4C3(C)C)C2)C1", "note": "[Example 12-40, (1R,9R)-10,10-dimethyl-6-(1-methyl-1H-indazol-7-yl)-4-(2-(2-propenoyl)-2,6-diazaspiro[3.4]octan-6-yl)-3-azatricyclo[7.1.1.0^2,7] undeca-2,4,6-triene-5-carbonitrile]", "IC50": 344}
{"smiles": "C=CC(=O)N1CC2(CCN(c3nc4c(c(-c5c(C)c(Cl)cc6cnn(C)c56)c3Cl)COC(C)(C)C4)C2)C1", "note": "(single isomer, unassigned) [Example 2-91, (P)-1-(6-(3-chloro-4-(5-chloro-1,6-dimethyl-1H-indazol-7-yl)-7,7-dimethyl-7,8-dihydro-5H-pyrano[4,3-b]pyridin-2-yl)-2,6-diazaspiro[3.4]octan-2-yl)-2-propen-1-one]", "IC50": 2890}
{"smiles": "C=CC(=O)N1CC2(CCN(c3nc4c(c(-c5c(C)c(Cl)cc6[nH]ncc56)c3Cl)COC(C)(C)C4)C2)C1", "note": "(single isomer, unassigned) [Example 2-108, (M)-1-(6-(3-chloro-4-(6-chloro-5-methyl-1H-indazol-4-yl)-7,7-dimethyl-7,8-dihydro-5H-pyrano[4,3-b]pyridin-2-yl)-2,6-diazaspiro[3.4]octan-2-yl)-2-propen-1-one]", "IC50": 14100}
{"smiles": "C=CC(=O)N1CC2(CCN(c3nc4c(c(-c5cc(O)ccc5C)c3Cl)COC(C)(C)C4)C2)C1", "note": "(single isomer, unassigned) [Example 2-80, (M)-1-(6-(3-chloro-4-(5-hydroxy-2-methylphenyl)-7,7-dimethyl-7,8-dihydro-5H-pyrano[4,3-b]pyridin-2-yl)-2,6-diazaspiro[3.4]octan-2-yl)-2-propen-1-one]", "IC50": 20100}
{"smiles": "C=CC(=O)N1CC2(CCN(c3nc4c(c(-c5cccc(F)c5O)c3C#N)C[C@H]3C[C@@H]4C3(C)C)C2)C1", "note": "(single isomer, unassigned) [Example 2-71]", "IC50": 20300}
{"smiles": "C=CC(=O)N1CC2(CCN(c3nc4c(c(-c5cc(O)c(F)c6ccccc56)c3C#N)CC[C@H]3C[C@@H]43)C2)C1", "note": "(single isomer, unassigned) [Example 13-73]", "IC50": 19300}
{"smiles": "CN(C)C/C=C/C(=O)N1CC2(CCN(c3nc4c(c(-c5cc(O)cc6ccccc56)c3C#N)CCC3CC43)C2)C1", "note": "[Example 13-85, (6aR,7aS)-2-(2-((2E)-4-(dimethylamino)-2-butenoyl)-2,6-diazaspiro[3.4]octan-6-yl)-4-(3-hydroxy-1-naphthalenyl)-6,6a,7,7a-tetrahydro-5H-cyclopropa[h]quinoline-3-carbontirile|(6aS,7aR)-2-(2-((2E)-4-(dimethylamino)-2-butenoyl)-2,6-diazaspiro[3.4]octan-6-yl)-4-(3-hydroxy-1-naphthalenyl)-6,6a,7,7a-tetrahydro-5H-cyclopropa[h]quinoline-3-carbonitrile]", "IC50": 316}
{"smiles": "C=CC(=O)N1CC2(CCN(c3nc4c(c(-c5c(C)ccc6cnn(C)c56)c3C#N)COC4(C)C)C2)C1", "note": "[Example 13-55, 4-(1,6-dimethyl-1H-indazol-7-yl)-7,7-dimethyl-2-(2-(2-propenoyl)-2,6-diazaspiro[3.4]octan-6-yl)-5,7-dihydrofuro[3,4-b]pyridine-3-carbonitrile]", "IC50": 877}
{"smiles": "CN(C)C/C=C/C(=O)N1CC2(CCN(c3nc4c(c(-c5cc(O)cc6ccccc56)c3C#N)CC[C@H]3C[C@@H]43)C2)C1", "note": "(single isomer, unassigned) [Example 13-88]", "IC50": 143}
{"smiles": "C=CC(=O)N1CC2(CCN(c3nc4c(c(-c5cnccc5C)c3C#N)C[C@H]3C[C@@H]4C3(C)C)C2)C1", "note": "(single isomer, unassigned) [Example 13-124]", "IC50": 45500}
{"smiles": "C=CC(=O)N1CC2(CCN(c3nc4c(c(-c5c(C)ccc6[nH]ncc56)c3C#N)CCC4(F)F)C2)C1", "note": "[Example 13-58, 7,7-difluoro-4-(5-methyl-1H-indazol-4-yl)-2-(2-(2-propenoyl)-2,6-diazaspiro[3.4]octan-6-yl)-6,7-dihydro-5H-cyclopenta[b]pyridine-3-carbonitrile]", "IC50": 514}
{"smiles": "C=CC(=O)N1CC2(CCN(c3nc4c(c(-c5c(F)cccc5[C@H](C)O)c3C#N)C[C@H]3C[C@@H]4C3(C)C)C2)C1", "note": "(single isomer, unassigned) [Example 12-36]", "IC50": 441}
{"smiles": "C=CC(=O)N1CC2(CCN(c3nc4c(c(-c5c(C)ccc6cnn(C)c56)c3C#N)CO[C@H](C)C4)C2)C1", "note": "[Example 13-141, (7)-2-(2-acryloyl-2,6-diazaspiro[3.4]octan-6-yl)-4-(1,6-dimethyl-1H-indazol-7-yl)-7-methyl-7,8-dihydro-5H-pyrano[4,3-b]pyridine-3-carbonitrile]", "IC50": 842}
{"smiles": "C=CC(=O)N1CC2(CCN(c3nc4c(c(-c5c(C)ccc6cnn(C)c56)c3Cl)COC(C)(C)C4)C2)C1", "note": "[Example 2-86, 1-(6-(3-chloro-4-(1,6-dimethyl-1H-indazol-7-yl)-7,7-dimethyl-7,8-dihydro-5H-pyrano[4,3-b]pyridin-2-yl)-2,6-diazaspiro[3.4]octan-2-yl)-2-propen-1-one]", "IC50": 6150}
